Results on 20 compounds are retold here after patent US20240262793A1, “QUINAZOLINE COMPOUND, AND PREPARATION METHOD THEREFOR AND APPLICATION THEREOF” (SHANGHAI PHARMACEUTICALS HOLDING CO., LTD., priority 2021, published 2024).

Assay type in all cases: cell-based
Common to all, as to conditions: Homo sapiens, LPS 100 ng/mL

In one test the test system is TNF-α. As to the kind of experiment: Inhibition of TNF-α in PMA-differentiated, LPS-stimulated THP-1 cells (ELISA of cell supernatant). The procedure: (§1) (1) Cell culture and inoculation: A stock solution of PMA at 1 mg/mL was diluted with serum-free RP1640 medium to prepare a 100 ng/mL PMA solution. Normal cultured THP-1 cells were centrifuged, resuspended in a complete medium (RP1640 medium containing 10% FBS), and counted. The cell density was adjusted to 2×10^6 cells/mL. An equal volume of 100 ng/mL PMA solution was then added, resulting in a cell density of 1×10^6 cells/mL and a final PMA concentration of 50 ng/mL. 100 μL of the cell suspension was seeded into each well of a 96-well cell culture plate with 1×10^5 cells per well. The 96-well cell culture plate was then incubated at 37° C. in a 5% CO2 atmosphere for 24 hours.
(§2) (2) Drug treatment of cells: On the second day, LPS was added to the complete medium to adjust the final concentration to 100 ng/mL, and the compound was prepared using this LPS-containing medium. The compound was added to the appropriate cell wells according to the prepared concentration gradient. The positive control group (LPS+) was a culture medium solution containing a final concentration of 100 ng/mL LPS and 0.1% DMSO without drugs, while the negative control group (LPS-) was a culture medium solution containing 0.1% DMSO without LPS. The volume in each well was 100 μL.
(§3) (3) Test sample collection: The mixture was centrifuged at 1000 rpm for 5 minutes and the cell supernatant and cell precipitate were collected separately. The cell supernatant was used to detect TNF-α and IL-6, and the cell precipitate was collected for IL-1β detection. After collecting the cell supernatant, the remaining liquid in the wells was discarded and 100 μL of cell lysis solution (20 mM Tris 8.0; 2 mM EDTA; 0.5% Triton X-100) was added to each well for complete lysis.
(§4) (4) Sample detection: The enzyme-linked immunosorbent assay (ELISA) was used to detect the content of each cytokine. The specific steps were performed according to the instructions provided in the corresponding kit manuals. The catalog numbers of kits are as follows: • Human TNF-alpha Quantikine ELISA Kit, Catalog # STA00D • Human IL-1 beta/IL-1F2 Quantikine ELISA Kit, Catalog # SLB50 • Human IL-6 Quantikine ELISA Kit, Catalog # S6050.
(§5) (5) Data analysis: The in vitro inhibitory activity of the compounds was calculated using the following formula: […]

In the next test the test system is IL-1β. As to the kind of experiment: Inhibition of IL-1β in PMA-differentiated, LPS-stimulated THP-1 cells (ELISA of cell lysate). How it is done:
as §1, §2, §3, §4, §5
A general note: ELISA stands for enzyme-linked immunosorbent assay.

A further test has as its system IL-6. As to the kind of experiment: Inhibition of IL-6 in PMA-differentiated, LPS-stimulated THP-1 cells (ELISA of cell supernatant). The procedure: as §1, §2, §3, §4, §5

`O=C1NC2(CCCC2)C(=O)N1CCCCCNc1ncnc2cc(F)ccc12` [Example 52, 3-(5-((7-Fluoroquinazolin-4-yl)amino)pentyl)-1,3-diazaspiro[4.4]nonane-2,4-dione]: the half-inhibitory concentration (IC50) worked out at 28.3 µM with TNF-α (THP-1, Table 8, PMA 50 ng/mL); 21 µM in the test with IL-1β (THP-1, Table 8, PMA 50 ng/mL); 0.28 µM in the test on IL-6 (THP-1, Table 8, PMA 50 ng/mL).

As for `CN1CC(=O)N(CCCCCNc2ncnc3cc(F)ccc23)C1=O` [Example 54, 3-(5-((7-Fluoroquinazolin-4-yl)amino)pentyl)-1-methylimidazoline-2,4-dione], the half-maximal inhibitory concentration (IC50) in the test with TNF-α (THP-1, Table 8, PMA 50 ng/mL) was 114 µM; in the test on IL-1β (THP-1, Table 8, PMA 50 ng/mL), 154 µM; with IL-6 (THP-1, Table 8, PMA 50 ng/mL), 1.05 µM.

In the case of `O=C1NC2(CC2)C(=O)N1CCCCCNc1ncnc2cc(F)ccc12` [Example 55, 6-(5-((7-Fluoroquinazolin-4-yl)amino)pentyl)-4,6-diazaspiro[2.4]heptane-5,7-dione], the concentration for half-maximal inhibition (IC50) was 34.9 µM in the test on TNF-α (THP-1, Table 8, PMA 50 ng/mL); 63.8 µM in the test on IL-1β (THP-1, Table 8, PMA 50 ng/mL); 0.34 µM in the test with IL-6 (THP-1, Table 8, PMA 50 ng/mL).

For `O=C1CNC(=O)N1CCCCNc1ncnc2cc(F)ccc12` [Example 56, 3-(4-((7-Fluoroquinazolin-4-yl)amino)butyl)imidazoline-2,4-dione], the IC50 turned out to be 159 µM in the test on TNF-α (THP-1, Table 8, PMA 50 ng/mL); 16.3 µM in the test with IL-1β (THP-1, Table 8, PMA 50 ng/mL); 18.8 µM with IL-6 (THP-1, Table 8, PMA 50 ng/mL).

For the compound `CC1(C)NC(=O)N(CCCCNc2ncnc3cc(F)ccc23)C1=O` [Example 57, 3-(4-((7-Fluoroquinazolin-4-yl)amino)butyl)-5,5-dimethylimidazoline-2,4-dione], the IC50 was 29.4 µM in the test with TNF-α (THP-1, Table 8, PMA 50 ng/mL); 53.9 µM in the test with IL-1β (THP-1, Table 8, PMA 50 ng/mL); 3.22 µM with IL-6 (THP-1, Table 8, PMA 50 ng/mL).

On to `CN1CC(=O)N(CCCCNc2ncnc3cc(F)ccc23)C1=O` [Example 58, 3-(4-((7-Fluoroquinazolin-4-yl)amino)butyl)-1-methylimidazoline-2,4-dione], for which the IC50 stood at 90.7 µM in the test on TNF-α (THP-1, Table 8, PMA 50 ng/mL); 86.5 µM in the test on IL-1β (THP-1, Table 8, PMA 50 ng/mL); 2.58 µM in the test with IL-6 (THP-1, Table 8, PMA 50 ng/mL).

For `O=C1NC2(CCCC2)C(=O)N1CCCCNc1ncnc2cc(F)ccc12` [Example 59, 3-(4-((7-Fluoroquinazolin-4-yl)amino)butyl)-1,3-diazaspiro[4.4]nonane-2,4-dione], the IC50 in the test with TNF-α (THP-1, Table 8, PMA 50 ng/mL) stood at 12.1 µM; in the test on IL-1β (THP-1, Table 8, PMA 50 ng/mL), 80.5 µM; in the test on IL-6 (THP-1, Table 8, PMA 50 ng/mL), 0.37 µM.

Regarding `O=C1NC2(CCCC2)C(=O)N1CCCCNc1ncnc2cc(Cl)ccc12` [Example 62, 3-(4-((7-Chloroquinazolin-4-yl)amino)butyl)-1,3-diazaspiro[4.4]nonane-2,4-dione], the IC50 with TNF-α (THP-1, Table 8, PMA 50 ng/mL) is 7.18 µM; in the test on IL-1β (THP-1, Table 8, PMA 50 ng/mL), 51.6 µM; in the test with IL-6 (THP-1, Table 8, PMA 50 ng/mL), 0.75 µM.

As to `O=C1CNC(=O)N1CCCCNc1ncnc2cc(Cl)ccc12` [Example 63, 3-(4-((7-Chloroquinazolin-4-yl)amino)butyl)imidazoline-2,4-dione], the IC50 turned out to be 79.4 µM in the test on TNF-α (THP-1, Table 8, PMA 50 ng/mL); 23.1 µM in the test with IL-1β (THP-1, Table 8, PMA 50 ng/mL); 14.4 µM in the test on IL-6 (THP-1, Table 8, PMA 50 ng/mL).

On to `O=C1NC2(CCC2)C(=O)N1CCCCNc1ncnc2cc(Cl)ccc12` [Example 64, 7-(4-((7-Chloroquinazolin-4-yl)amino)butyl)-5,7-diazaspiro[3.4]octane-6,8-dione], for which the IC50 in the test with TNF-α (THP-1, Table 8, PMA 50 ng/mL) stood at 34.9 µM; with IL-1β (THP-1, Table 8, PMA 50 ng/mL) it was 63.8 µM; in the test with IL-6 (THP-1, Table 8, PMA 50 ng/mL), 0.34 µM.

Take `O=C1NC2(CCCC2)C(=O)N1CCCCCNc1ncnc2cc(Cl)ccc12` [Example 66, 3-(5-((7-Chloroquinazolin-4-yl)amino)pentyl)-1,3-diazaspiro[4.4]nonane-2,4-dione]: the half-inhibitory concentration (IC50) with TNF-α (THP-1, Table 8, PMA 50 ng/mL) stood at 3.41 µM; with IL-1β (THP-1, Table 8, PMA 50 ng/mL), 37.4 µM; in the test with IL-6 (THP-1, Table 8, PMA 50 ng/mL), 0.3 µM.

`O=C1CNC(=O)N1CCCCCNc1ncnc2cc(Cl)ccc12` [Example 67, 3-(5-((7-Chloroquinazolin-4-yl)amino)pentyl)imidazoline-2,4-dione]: the IC50 in the test on TNF-α (THP-1, Table 8, PMA 50 ng/mL) stood at 65.2 µM; in the test with IL-1β (THP-1, Table 8, PMA 50 ng/mL), 105 µM; in the test on IL-6 (THP-1, Table 8, PMA 50 ng/mL) it was 4.6 µM.

As to `CC1(C)NC(=O)N(CCCCCNc2ncnc3cc(Cl)ccc23)C1=O` [Example 69, 3-(5-((7-Chloroquinazolin-4-yl)amino)pentyl)-5,5-dimethylimidazoline-2,4-dione], the IC50 in the test on TNF-α (THP-1, Table 8, PMA 50 ng/mL) turned out to be 11.7 µM; with IL-1β (THP-1, Table 8, PMA 50 ng/mL), 13.7 µM; with IL-6 (THP-1, Table 8, PMA 50 ng/mL), 0.58 µM.

Regarding `CC(CCCN1C(=O)NC2(CCC2)C1=O)Nc1ncnc2cc(Cl)ccc12` (stereo not drawn) [Example 71, 7-(4-((7-Chloroquinazolin-4-yl)amino)pentyl)-5,7-diazaspiro[3.4]octane-6,8-dione], the 50% inhibitory concentration (IC50) with TNF-α (THP-1, Table 8, PMA 50 ng/mL) is 12.7 µM; in the test on IL-1β (THP-1, Table 8, PMA 50 ng/mL) it was 16.1 µM; in the test with IL-6 (THP-1, Table 8, PMA 50 ng/mL), 0.64 µM.

On to `CC(CCCN1C(=O)NC2(CCCC2)C1=O)Nc1ncnc2cc(Cl)ccc12` (stereo not drawn) [Example 72, 3-(4-((7-Chloroquinazolin-4-yl)amino)pentyl)-1,3-diazaspiro[4.4]nonane-2,4-dione], for which the IC50 came out at 7.5 µM with TNF-α (THP-1, Table 8, PMA 50 ng/mL); 12.8 µM in the test with IL-1β (THP-1, Table 8, PMA 50 ng/mL); 0.23 µM in the test on IL-6 (THP-1, Table 8, PMA 50 ng/mL).

With `CC(CCCN1C(=O)NC2(CC2)C1=O)Nc1ncnc2cc(Cl)ccc12` (stereo not drawn) [Example 73, 6-(4-((7-Chloroquinazolin-4-yl)amino)pentyl)-4,6-diazaspiro[2.4]heptane-5,7-dione], the IC50 was found to be 33.5 µM with TNF-α (THP-1, Table 8, PMA 50 ng/mL); 38.1 µM in the test on IL-1β (THP-1, Table 8, PMA 50 ng/mL); 1.5 µM with IL-6 (THP-1, Table 8, PMA 50 ng/mL).

Turning to `C[C@@H](CCCN1C(=O)CNC1=O)Nc1ncnc2cc(Cl)ccc12` [Example 75, (S)-3-(4-((7-Chloroquinazolin-4-yl)amino)pentyl)imidazolidine-2,4-dione], the half-inhibitory concentration (IC50) with TNF-α (THP-1, Table 8, PMA 50 ng/mL) turned out to be 45.6 µM; in the test on IL-1β (THP-1, Table 8, PMA 50 ng/mL), 53.8 µM; with IL-6 (THP-1, Table 8, PMA 50 ng/mL) it was 4.28 µM.

With `C[C@H](CCCN1C(=O)NC2(CC2)C1=O)Nc1ncnc2cc(Cl)ccc12` [Example 76, (R)-6-(4-((7-Chloroquinazolin-4-yl)amino)pentyl)-4,6-diazaspiro[2.4]heptane-5,7-dione], the IC50 in the test on TNF-α (THP-1, Table 8, PMA 50 ng/mL) came out at 96.1 µM; in the test with IL-1β (THP-1, Table 8, PMA 50 ng/mL), 110 µM; in the test on IL-6 (THP-1, Table 8, PMA 50 ng/mL), 19.9 µM.

As to `C[C@@H](CCCN1C(=O)NC2(CC2)C1=O)Nc1ncnc2cc(Cl)ccc12` [Example 77, (S)-6-(4-((7-Chloroquinazolin-4-yl)amino)pentyl)-4,6-diazaspiro[2.4]heptane-5,7-dione], the IC50 in the test with TNF-α (THP-1, Table 8, PMA 50 ng/mL) is 22.7 µM; in the test with IL-1β (THP-1, Table 8, PMA 50 ng/mL), 26.6 µM; with IL-6 (THP-1, Table 8, PMA 50 ng/mL), 1.37 µM.

As for `CCN(CCO)CCCC(C)Nc1ccnc2cc(Cl)ccc12` (stereo not drawn) [HCQ, Hydroxychloroquine, reference compound], the IC50 in the test with TNF-α (THP-1, Table 7, PMA 50 ng/mL) turned out to be 69.3 µM; in the test with TNF-α (THP-1, Table 8, PMA 50 ng/mL) it was 90.5 µM; in the test with IL-1β (THP-1, Table 7, PMA 50 ng/mL) it was 62.2 µM; in the test with IL-1β (THP-1, Table 8, PMA 50 ng/mL) it was 164 µM; in the test on IL-6 (THP-1, Table 7, PMA 50 ng/mL), 32 µM; with IL-6 (THP-1, Table 8, PMA 50 ng/mL) it was 123 µM.

Broadly, the IC50 is the point on the concentration scale where inhibition reaches its midpoint. A lower IC50 goes with greater potency in that assay.
